# Measurements: publication PMC10377643, “Exploration of Bis-Cinnamido-Polyamines as Intrinsic Antimicrobial Agents and Antibiotic Enhancers” (Biomolecules, 2023)
# Where two headings read alike, the source gives them in different places.
# Tests used:
# Cytotoxicity assay = assay type: cell-based, human; conditions: human, HEK293 human embryonic kidney cells, mean (n = 2), read-out: Cytotoxicity (IC50), concentration of compound at 50% cytotoxicity
# Description: (§1) Cytotoxicity assays were conducted using the protocols previously reported.
# [1] = test system: HEK293 human embryonic kidney cells; test: Cytotoxicity assay; assay type: cell-based; conditions: mean (n = 2)
# Description: as §1
# P. aeruginosa ATCC 27853 [2] = test: Doxycycline enhancement against P. aeruginosa; assay type: cell-based, Pseudomonas aeruginosa; conditions: doxycycline fixed at 4.5 µM
# Description: (§2) Antibiotic enhancer concentrations were determined using previously reported protocols.
# We then evaluated the set of analogues for the ability to enhance the antibiotic activity of doxycycline against P. aeruginosa ATCC 27853 and of erythromycin against E. coli ATCC 25922 (Table 2). In the case of doxycycline, a fixed concentration of the antibiotic of 4.5 μM, which is twenty-fold lower than the intrinsic MIC 90 μM against this organism, was used. Each of the test compounds was then evaluated at a range of concentrations varying from 3.125 to 50–100 μM, with the upper concentration dependent upon the compounds intrinsic MIC towards P. aeruginosa (Table 1). […] While the observation of cytotoxicity/hemolytic properties of 16a–c, 14f and 13f reduces our interest in these analogues, analogues 13b and 13d were identified as non-toxic and strong enhancers of the action of doxycycline towards P. aeruginosa.
# MRSA ATCC 43300 = test: Antimicrobial MIC, MRSA (CO-ADD); assay type: cell-based, methicillin-resistant S. aureus; conditions: Staphylococcus aureus, read-out: MIC MRSA
# Description: (§3) The susceptibility of bacterial strains S. aureus (ATCC 25923), E. coli (ATCC 25922) and P. aeruginosa (ATCC 27853) to antibiotics and compounds was determined using protocols reported previously. Additional antimicrobial evaluation against MRSA (ATCC 43300), Klebsiella pneumoniae (ATCC 700603), Acinetobacter baumannii (ATCC 19606), Candida albicans (ATCC 90028) and Cryptococcus neoformans (ATCC 208821) was undertaken at the Community for Open Antimicrobial Drug Discovery at The University of Queensland (Australia) according to their standard protocols reported previously.
# E. coli ATCC 25922 [3] = test: Antimicrobial MIC, E. coli; assay type: cell-based, Escherichia coli; conditions: mean (n = 3)
# Description: as §3
# human red blood cells = test: Hemolytic assay; assay type: cell-based; conditions: mean (n = 2)
# Description: Hemolysis assays were conducted using the protocols previously reported.
# C. albicans ATCC 90028 = test: Antifungal MIC, C. albicans (CO-ADD); assay type: cell-based; conditions: Candida albicans, ATCC90028, mean (n = 2)
# Description: as §3
# [4] = test system: C. neoformans ATCC 208821; test: Antifungal MIC, C. neoformans (CO-ADD); assay type: cell-based; conditions: Cryptococcus neoformans, ATCC208821, mean (n = 2)
# Description: as §3
# S. aureus ATCC 25923 = test: Antimicrobial MIC, S. aureus; assay type: cell-based; conditions: Staphylococcus aureus, ATCC25923, mean (n = 3)
# Description: as §3
# E. coli ATCC 25922 [5] = test: Erythromycin enhancement against E. coli; assay type: cell-based, Escherichia coli; conditions: erythromycin fixed at 10.9 µM (8 µg/mL)
# Description: as §2
# P. aeruginosa ATCC 27853 [6] = test: Antimicrobial MIC, P. aeruginosa; assay type: cell-based; conditions: Pseudomonas aeruginosa, ATCC27853, mean (n = 3)
# Description: as §3
# A. baumannii AYE = test: Intrinsic MIC, A. baumannii AYE; assay type: cell-based; conditions: Acinetobacter baumannii, read-out: MIC alone, A. b
# Description: as §2
# K. pneumoniae ATCC 13883 = test: Intrinsic MIC, K. pneumoniae ATCC 13883; assay type: cell-based; conditions: Klebsiella pneumoniae
# Description: as §2
# P. aeruginosa PAO1 = test: Intrinsic MIC, P. aeruginosa PAO1; assay type: cell-based; conditions: Pseudomonas aeruginosa
# Description: as §2
# [7] = Escherichia coli, ATCC25922, E. coli ATCC 25922
# [8] = A. baumannii AYE, substance alone
# [9] = ATCC13883, K. pneumoniae ATCC 13883, substance alone, read-out: MIC alone, K. p
# [10] = P. aeruginosa PAO1, substance alone (no antibiotic / no enhancer), read-out: MIC alone, P. a
Compound,IC50 (Cytotoxicity assay),Dox/P. a: concentration required to restore doxycycline activity (P. aeruginosa ATCC 27853 [2]),"MIC (MRSA ATCC 43300; MRSA ATCC 43300, mean (n = 2))",MIC (E. coli ATCC 25922 [3]; [7]),"Hemolysis (HC10), concentration of compound at 10% hemolytic activity (human red blood cells)",MIC (C. albicans ATCC 90028),MIC [4],MIC (S. aureus ATCC 25923),Eryth/E. c: concentration required to restore erythromycin activity (E. coli ATCC 25922 [5]),Eryth/E. c: fold change (intrinsic MIC of test compound / combination MIC) (E. coli ATCC 25922 [5]),MIC (P. aeruginosa ATCC 27853 [6]),Dox/P. a: fold change (intrinsic MIC of test compound / combination MIC) (P. aeruginosa ATCC 27853 [2]),MIC (A. baumannii AYE; [8]),MIC (K. pneumoniae ATCC 13883; [9]),MIC (P. aeruginosa PAO1; [10]),also measured
"O=C(C=Cc1ccccc1)NCCCNCCCCCCCCNCCCNC(=O)C=Cc1ccccc1.O=C(O)C(F)(F)F.O=C(O)C(F)(F)F [Compound 13d, N^1,N^8-Bis(3-cinnamamidopropyl)octane-1,8-diaminium 2,2,2-trifluoroacetate]",> 42.9 µM,6.25 µM,42.8 µM,100 µM,>42.9 µM,> 42.8 µM,42.8 µM,100 µM,25 µM,4 fold,> 200 µM,–,–,–,–,"Cytotoxicity (IC50), concentration of compound at 50% cytotoxicity [1]: non-toxic"
"COc1ccc(/C=C/C(=O)NCCCNCCCCCCCCNCCCNC(=O)/C=C/c2ccc(OC)cc2)cc1.O=C(O)C(F)(F)F.O=C(O)C(F)(F)F [Compound 14d, N^1,N^8-Bis(3-((E)-3-(4-methoxyphenyl)acrylamido)propyl)octane-1,8-diaminium 2,2,2-trifluoroacetate]",> 39.7 µM,15.5 µM,≤ 0.31 µM,62 µM,–,> 39.7 µM,–,7.75 µM,62 µM,1 fold,248 µM,16 fold,–,–,–,"Cytotoxicity (IC50), concentration of compound at 50% cytotoxicity [1]: does not exhibit cytotoxicity/hemolysis"
"COc1c(Br)cc(/C=C/C(=O)NCCCNCCCCCCCNCCCNC(=O)/C=C/c2cc(Br)c(OC)c(Br)c2)cc1Br.O=C(O)C(F)(F)F.O=C(O)C(F)(F)F [Compound 16c, N^1,N^7-Bis(3-((E)-3-(3,5-dibromo-4-methoxyphenyl)acrylamido)propyl)heptane-1,7-diaminium 2,2,2-trifluoroacetate]",22 µM,–,≤ 0.23 µM,11.3 µM,0.31 µM,> 28.9 µM,≤ 0.23 µM,5.64 µM,22.6 µM,0.5 fold,180 µM,16 fold,–,–,–,–
"COc1c(Br)cc(/C=C/C(=O)NCCCNCCCCCCCCNCCCNC(=O)/C=C/c2cc(Br)c(OC)c(Br)c2)cc1Br.O=C(O)C(F)(F)F.O=C(O)C(F)(F)F [Compound 16d, N^1,N^8-Bis(3-((E)-3-(3,5-dibromo-4-methoxyphenyl)acrylamido)propyl)octane-1,8-diaminium 2,2,2-trifluoroacetate]",11 µM,44.5 µM,≤ 0.22 µM,11.1 µM,≤0.22 µM,> 28.5 µM,≤ 0.22 µM,5.57 µM,22.3 µM,0.5 fold,> 178 µM,> 4 fold,–,–,–,–
"COc1c(Br)cc(/C=C/C(=O)NCCCNCCCCCCCCCCCCNCCCNC(=O)/C=C/c2cc(Br)c(OC)c(Br)c2)cc1Br.O=C(O)C(F)(F)F.O=C(O)C(F)(F)F [Compound 16f, N^1,N^12-Bis(3-((E)-3-(3,5-dibromo-4-methoxyphenyl)acrylamido)propyl)dodecane-1,12-diaminium 2,2,2-trifluoroacetate]",1.44 µM,42.4 µM,≤ 0.21 µM,5.3 µM,0.24 µM,≤ 0.21 µM,≤ 0.21 µM,5.3 µM,5.30 µM,1 fold,> 170 µM,> 4 fold,–,–,–,MIC (E. coli ATCC 25922 [3]; E. coli ATCC 25922): 5.30 µM
O=C(N[C@H](CO)[C@H](O)c1ccc([N+](=O)[O-])cc1)C(Cl)Cl [chloramphenicol],–,–,–,–,–,–,–,1.5 to 3 µM,–,–,–,–,> 200 µM,> 200 µM,> 200 µM,–
"C[C@H]1c2cccc(O)c2C(=O)C2=C(O)[C@]3(O)C(=O)C(C(N)=O)=C(O)[C@@H](N(C)C)[C@@H]3[C@@H](O)[C@@H]21 [doxycycline, reference compound]",–,–,–,–,–,–,–,–,–,–,90 µM,–,–,–,144 µM,–
CC[C@H]1OC(=O)[C@H](C)[C@@H](O[C@H]2C[C@@](C)(OC)[C@@H](O)[C@H](C)O2)[C@H](C)[C@@H](O[C@@H]2O[C@H](C)C[C@H](N(C)C)[C@H]2O)[C@](C)(O)C[C@@H](C)C(=O)[C@H](C)[C@@H](O)[C@]1(C)O [erythromycin],–,–,–,–,–,–,–,–,–,–,–,–,> 200 µM,> 200 µM,> 200 µM,–
CN(C)c1ccc(O)c2c1C[C@H]1C[C@H]3[C@H](N(C)C)C(O)=C(C(N)=O)C(=O)[C@@]3(O)C(O)=C1C2=O [minocycline],–,–,–,–,–,–,–,–,–,–,–,–,27 µM,27 µM,70 µM,–
CCn1cc(C(=O)O)c(=O)c2ccc(C)nc21 [nalidixic acid],–,–,–,–,–,–,–,–,–,–,–,–,> 200 µM,> 200 µM,> 200 µM,–
CN[C@H](CC(C)C)C(=O)N[C@H]1C(=O)N[C@@H](CC(N)=O)C(=O)N[C@H]2C(=O)N[C@H]3C(=O)N[C@H](C(=O)N[C@H](C(=O)O)c4cc(O)cc(O)c4-c4cc3ccc4O)[C@H](O)c3ccc(c(Cl)c3)Oc3cc2cc(c3O[C@@H]2O[C@H](CO)[C@@H](O)[C@H](O)[C@H]2O[C@H]2C[C@](C)(N)[C@H](O)[C@H](C)O2)Oc2ccc(cc2Cl)[C@H]1O [vancomycin],–,–,–,–,–,–,–,–,–,–,–,–,–,–,–,"MIC (MRSA ATCC 43300): 0.7 µM; MIC (A. baumannii AYE): 138 µM; MIC (K. pneumoniae ATCC 13883; ATCC13883, read-out: MIC alone, K. p): 138 µM; MIC (P. aeruginosa PAO1; PAO1, read-out: MIC alone, P. a): 138 µM"
